In ChEMBL document CHEMBL5236572, “Bioactive Aurones, Indanones, and Other Hemiindigoid Scaffolds: Medicinal Chemistry and Photopharmacology Perspectives” (J Med Chem, 2022):
Values after ≈ are worked out from the molar mass of the structure shown.

Assays:
Pseudomonas aeruginosa [1] = assay: Antimicrobial activity against Pseudomonas aeruginosa assessed as bacterial growth inhibition; format: functional
Staphylococcus aureus = assay: Antimicrobial activity against Staphylococcus aureus assessed as bacterial growth inhibition; format: functional
Aspergillus flavus = assay: Antifungal activity against Aspergillus flavus assessed as reduction in fungal growth; format: functional
Aspergillus niger = assay: Antifungal activity against Aspergillus niger assessed as reduction in fungal growth; format: functional
[2] = target: Serine/threonine-protein kinase AKT (Homo sapiens, UniProt P31751+Q9Y243+P31749); assay: Inhibition of AKT (unknown origin) by FRET based Z'-LYTE assay; format: protein assay
Pseudomonas aeruginosa [3] = assay: Antimicrobial activity against Pseudomonas aeruginosa MTCC 1688 assessed as bacterial growth inhibition by broth microdilution method; format: functional
[4] = target: T1, Amine oxidase [flavin-containing] A (Homo sapiens, UniProt P21397); assay: Inhibition of recombinant human MAO-A
T1 sequence (P21397 whole entry): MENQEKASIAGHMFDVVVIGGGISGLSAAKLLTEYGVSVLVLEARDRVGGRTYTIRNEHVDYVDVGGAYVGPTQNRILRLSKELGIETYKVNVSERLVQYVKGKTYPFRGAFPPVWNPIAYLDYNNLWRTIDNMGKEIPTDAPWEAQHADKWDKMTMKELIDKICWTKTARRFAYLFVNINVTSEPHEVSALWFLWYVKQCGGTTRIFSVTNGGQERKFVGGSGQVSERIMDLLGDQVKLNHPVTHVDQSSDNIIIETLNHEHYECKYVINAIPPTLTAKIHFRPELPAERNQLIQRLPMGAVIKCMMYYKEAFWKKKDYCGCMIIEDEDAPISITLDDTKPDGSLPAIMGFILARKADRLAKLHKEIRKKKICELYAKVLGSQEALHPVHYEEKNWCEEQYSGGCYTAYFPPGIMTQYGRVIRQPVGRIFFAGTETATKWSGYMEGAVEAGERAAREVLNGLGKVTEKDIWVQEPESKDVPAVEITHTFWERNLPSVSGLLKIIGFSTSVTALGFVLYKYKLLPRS

[5] = target: T2, Amine oxidase [flavin-containing] B (Homo sapiens, UniProt P27338); assay: Inhibition of recombinant human MAO-B
T2 sequence (P27338 whole entry): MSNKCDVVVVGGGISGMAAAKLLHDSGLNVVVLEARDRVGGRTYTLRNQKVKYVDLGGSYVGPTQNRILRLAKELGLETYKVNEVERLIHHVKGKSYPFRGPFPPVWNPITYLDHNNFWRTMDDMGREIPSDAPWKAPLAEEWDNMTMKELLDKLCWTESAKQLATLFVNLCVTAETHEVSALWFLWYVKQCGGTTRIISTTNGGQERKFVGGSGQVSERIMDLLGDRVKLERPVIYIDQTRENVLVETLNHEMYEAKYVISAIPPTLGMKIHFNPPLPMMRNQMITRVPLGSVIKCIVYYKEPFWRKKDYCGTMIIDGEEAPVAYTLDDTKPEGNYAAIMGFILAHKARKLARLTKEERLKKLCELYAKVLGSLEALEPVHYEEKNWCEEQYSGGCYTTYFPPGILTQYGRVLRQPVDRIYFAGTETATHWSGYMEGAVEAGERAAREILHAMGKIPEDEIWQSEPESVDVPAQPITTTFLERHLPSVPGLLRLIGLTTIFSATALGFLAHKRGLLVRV

Homo sapiens = species on record: Homo sapiens; assay: Selectivity index, ratio of IC50 for inhibition of recombinant human MAO-A to IC50 for inhibition of recombinant human MAO-B
[6] = Binding affinity to Helicobacter pylori HTRA by SPR analysis
U-251 = assay: Antiproliferative activity against doxorubicin resistant human U-251 cells assessed as inhibition of cell viability incubated for 48 hrs by sulforhodamine B assay; format: functional, cell-based; details: U-251, 48 h
[7] = system: Trypanosoma brucei brucei; assay: Antitrypanosomal activity against Trypanosoma brucei brucei assessed as reduction in parasite viability by resorufin based fluorescence assay; format: functional, organism-based
[8] = Cytotoxicity against human HeLa cells assessed as reduction in cell viability; format: toxicity, cell-based
[9] = system: Mycobacterium tuberculosis; assay: Antimicrobial activity against Mycobacterium tuberculosis H37Rv assessed as reduction in bacterial growth incubated for 7 days by broth micro dilution method; format: functional; details: 168 h, time 7 day
[10] = Cytotoxicity against human HEK293T cells; format: toxicity, cell-based, HEK-293T
Leishmania major [11] = assay: Antileishmanial activity against promastigote stage Leishmania major MHOM/JL/80/Friedlin overexpressing ABCI4 infected in human THP-1 cells assessed as fold change in reduction in parasite growth incubated for 72 hrs in presence of SbIII by MTT assay; format: functional
Leishmania major [12] = assay: Antileishmanial activity against promastigote stage Leishmania major MHOM/JL/80/Friedlin overexpressing ABCI4 infected in human THP-1 cells assessed as reduction in parasite growth incubated for 72 hrs by MTT assay; format: functional, organism-based; details: THP-1, 72 h
THP-1 = assay: Cytotoxicity against human THP-1 cells assessed as reduction in cell viability incubated for 72 hrs by MTT assay; format: functional, cell-based; details: THP-1, 72 h
Toxoplasma gondii = assay: Antiparasitic activity against Toxoplasma gondii RH type 1 infected in human HFF cells assessed as inhibition of parasite proliferation incubated for 30 hrs by Hoechst-33342, YFP2 and Alexa-488 dye based high content imaging analysis; format: functional, organism-based; details: RH type 1, HFF
[13] = target: T2, Amine oxidase [flavin-containing] B; assay: Inhibition of recombinant human MAO-B using p-tyramine as substrate by Amplex-Red MAO assay
[14] = target: T1, Amine oxidase [flavin-containing] A; assay: Inhibition of recombinant human MAO-A using p-tyramine as substrate by Amplex-Red MAO assay
Casein kinase 2 = Casein kinase 2 (Homo sapiens, UniProt P67870+P68400+P19784+Q8NEV1); assay: Inhibition of recombinant human CK2 using RRRDDDSDDD as substrate in presence of [gamma-33P-ATP] incubated for 20 mins by beta-counter analysis; format: protein assay
[15] = target: T3, Amyloid-beta precursor protein (Homo sapiens, UniProt P05067); assay: Inhibition of self-induced amyloid beta (1 to 42) (unknown origin) disaggregation by ThT-based fluorometric assay
[16] = target: T3, Amyloid-beta precursor protein; assay: Inhibition of amyloid beta (1 to 42) (unknown origin) self aggregation by ThT-based fluorometric assay

T3 sequence (P05067 whole entry): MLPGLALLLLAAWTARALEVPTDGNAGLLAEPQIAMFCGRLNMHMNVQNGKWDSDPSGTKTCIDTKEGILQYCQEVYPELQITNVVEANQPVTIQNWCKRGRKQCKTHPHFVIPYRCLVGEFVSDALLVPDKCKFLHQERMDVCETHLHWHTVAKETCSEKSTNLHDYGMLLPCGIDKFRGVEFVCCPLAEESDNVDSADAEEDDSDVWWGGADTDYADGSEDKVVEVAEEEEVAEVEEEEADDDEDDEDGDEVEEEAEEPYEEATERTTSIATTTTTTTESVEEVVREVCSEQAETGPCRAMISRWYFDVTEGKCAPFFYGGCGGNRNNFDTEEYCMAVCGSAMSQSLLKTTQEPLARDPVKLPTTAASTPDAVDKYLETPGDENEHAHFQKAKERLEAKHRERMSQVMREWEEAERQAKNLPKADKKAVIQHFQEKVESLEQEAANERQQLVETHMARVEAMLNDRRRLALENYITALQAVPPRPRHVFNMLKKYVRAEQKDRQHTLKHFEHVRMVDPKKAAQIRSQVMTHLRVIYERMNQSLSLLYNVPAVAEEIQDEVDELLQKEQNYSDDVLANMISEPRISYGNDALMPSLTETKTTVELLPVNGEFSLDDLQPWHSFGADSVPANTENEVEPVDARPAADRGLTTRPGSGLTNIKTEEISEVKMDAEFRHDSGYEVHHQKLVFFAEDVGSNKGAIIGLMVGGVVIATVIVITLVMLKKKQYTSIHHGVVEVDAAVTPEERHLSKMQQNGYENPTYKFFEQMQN

## Cc1ccc2c(c1)C(=O)/C(=C/c1coc3ccc(C)cc3c1=O)O2
Pseudomonas aeruginosa [1]
  MIC: 1.6 µM (≈ 0.509 µg/mL)
Staphylococcus aureus
  MIC: 1.6 µM (≈ 0.509 µg/mL)
Aspergillus flavus
  MIC: 14 µM (≈ 4.46 µg/mL)
Aspergillus niger
  MIC: 14 µM (≈ 4.46 µg/mL)

## Cc1ccc2c(c1C)C(=O)/C(=C/c1ccccc1)C2
[2]
  IC50: 66 nM

## C=CCn1c(=O)c(/C=C2\Oc3cc(O)cc(O)c3C2=O)cc2cc(C)ccc21
Pseudomonas aeruginosa [3]
  MIC: 33 µM (≈ 12.4 µg/mL)

## COc1cc2c(cc1OC)C(=O)/C(=C/c1ccc(N(C)C)cc1)C2
[4]
  IC50: 20 nM
[5]
  IC50: 58000 nM
Homo sapiens
  Ratio IC50: > 2500

## O=C(O)c1cc(-c2ccc(/C=C3\Sc4ccccc4C3=O)o2)ccc1Cl
[6]
  Kd: 12000 nM

## O=C1/C(=C(\O)c2ccc3ccccc3c2)Cc2ccccc21
U-251
  IC50: 2500 nM

## O=C1/C(=C/c2cccnc2Cl)Cc2ccccc21
[7]
  IC50: 550 nM
[8]
  CC50: > 100000 nM

## CC(=O)N1/C(=C\c2ccc(-c3cnc4ccccc4c3)cc2)C(=O)c2ccccc21
[9]
  MIC90: 0.65 µM (≈ 0.254 µg/mL)
  MIC99: 0.74 µM (≈ 0.289 µg/mL)
[10]
  CC50: 19 nM

## COc1ccc(OC)c(/C=C2\Oc3cc(O)cc(O)c3C2=O)c1
Leishmania major [11]
  fold change (FC): 6
Leishmania major [12]
  EC50: 190000 nM
THP-1
  EC50: 350000 nM

## O=C1/C(=C/c2cn(CC3CCCCC3)c3ccccc23)Oc2cc(O)cc(O)c21
Toxoplasma gondii
  IC50: 10000 nM

## O=C1/C(=C/c2c3ccccc3cc3ccccc23)Oc2ccccc21
[13]
  Ki: 200 nM
[14]
  Ki: 110 nM

## O=C1/C(=C/c2ccc(O)c(Br)c2)Oc2c(Br)cccc21
Casein kinase 2
  IC50: 3.3 nM

## COc1cc2c(cc1OC)C(=O)/C(=C/c1ccc([N+](=O)[O-])cc1)C2
[15]
  IC50: 7900 nM
[16]
  IC50: 1800 nM
[5]
  IC50: 30 nM
